Results reported in article PMC10204553, “Identification of the Binding Epitope of an Anti-Mouse CCR6 Monoclonal Antibody (C6Mab-13) Using 1× Alanine Scanning” (Antibodies, 2023).

What was measured:
C6Mab-13 [1] = experiment: ELISA of C6Mab-13 with immobilized alanine-substituted mCCR6 peptides; type: binding, rat; details: for binding of C6Mab-13 in ELISA (in words): ELISA with alanine-substituted peptides, Figure 1A; for C6Mab-13 Reactivity: ELISA, peptide immobilized at 10 µg/mL, 30 min 37 °C, C6Mab-13 10 µg/mL, OD at 655 nm
Protocol: Synthesized mCCR6 peptides were immobilized on Nunc Maxisorp 96-well immunoplates (Thermo Fisher Scientific Inc., Waltham, MA, USA) at 10 µg/mL for 30 min at 37 °C. After being washed with phosphate-buffered saline (PBS) containing 0.05% Tween20 (PBST; Nacalai Tesque, Inc., Kyoto, Japan), the wells were blocked with 1% bovine serum albumin (BSA)-containing PBST for 30 min at 37 °C. The plates were incubated with 10 µg/mL of C6Mab-13 for 30 min at 37 °C followed by peroxidase-conjugated anti-rat immunoglobulins (1:20,000 diluted; Sigma-Aldrich Corp.) for 30 min at 37 °C. Enzymatic reactions were conducted at room temperature using the ELISA POD Substrate TMB Kit (Nacalai Tesque, Inc.). Optical density was measured at 655 nm using an iMark microplate reader (Bio-Rad Laboratories, Inc., Berkeley, CA, USA).
Figure 1 Determination of the C6Mab-13 epitope by ELISA using alanine-substituted peptides of mCCR6. (A) Synthesized peptides of mCCR6 (10 µg/mL) were immobilized on immunoplates for 30 min at 37 °C. The plates were incubated with 10 µg/mL of C6Mab-13, followed by treatment with peroxidase-conjugated anti-rat immunoglobulins. Optical density was measured at 655 nm (OD655) using a microplate reader. (B) The schematic illustration of mCCR6 and the C6Mab-13 epitope. The C6Mab-13 epitope of mCCR6 comprises Asp11 from ELISA experiments.

C6Mab-13 [2] = experiment: Surface plasmon resonance (Biacore X100), C6Mab-13 immobilized on CM5 chip; type: binding, rat; details: KD could not be calculated
Protocol: The dissociation constants (KD) between C6Mab-13 and the epitope region peptides were measured using SPR. C6Mab-13 was immobilized on the CM5 sensor chip according to the manufacturer’s protocol (Cytiva, Marlborough, MA, USA). In summary, C6Mab-13 was diluted to 10 μg/mL by an acetate buffer (pH 4.0; Cytiva) and immobilized using an amine-coupling reaction. The surface of flow cell 2 of the CM5 sensor chip was treated with 1-ethyl-3-(3-dimethylaminopropyl)-carbodiimide and N-hydroxysuccinimide (NHS), followed by an injection of C6Mab-13. The unreacted NHS-ester was blocked with ethanolamine after C6Mab-13 immobilization. The KD between C6Mab-13 and mCCR6 peptides (50, 25, 12.5, 6.25, and 3.13 µM) were measured using Biacore X100 (Cytiva) at 25 °C. The buffer was filtrated with PBS containing 0.05% (v/v) Tween 20 and 0.24% (v/v) dimethyl sulfoxide (FUJIFILM Wako Pure Chemical Corporation, Osaka, Japan). The single-cycle kinetics method was used to measure the binding signals. The data were analyzed using 1:1 binding kinetics to determine the association rate constant (ka), dissociation rate constant (kd), and KD using BIAevaluation software (Cytiva).

| Sequence | binding of C6Mab-13 in ELISA (in words) (C6Mab-13 [1]) | C6Mab-13 Reactivity (C6Mab-13 [1]) | binding to C6Mab-13 in SPR analysis (in words) (C6Mab-13 [2]) |
| --- | --- | --- | --- |
| MNSTESYFATDDYDNTEYYS [G9A, 1× alanine-substituted mCCR6 1–20 peptide] | bound | +++ (OD655 ≧ 0.3) | lack of binding |
| MNSTESYFGTADYDNTEYYS [D11A, 1× alanine-substituted mCCR6 1–20 peptide] | did not react | - (OD655 < 0.1) | lack of binding |
